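In this assay, cells in 96-well plates receive the compound at five concentrations for 48 hours. Endpoints are linearly interpolated between the surrounding concentrations. Here, GI50 denotes the concentration required for 50% inhibition of growth. TGI is the concentration that stops growth completely.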
Experiments:
Assay in all cases: DTP human tumour cell line panel, 48 h
[1] = tested on: NCI-H522 lung
[2] = tested on: OVCAR-4 ovarian
[3] = tested on: M14 melanoma
[4] = tested on: SF-539 CNS
[5] = tested on: NCI-H460 lung
[6] = tested on: SF-295 CNS
[7] = tested on: ACHN renal
[8] = tested on: CCRF-CEM leukemia
[9] = tested on: HL-60(TB) leukemia
[10] = tested on: HOP-62 NSCLC

SMILES	TGI [1] [µM]	TGI [2] [µM]	TGI [3] [µM]	TGI [4] [µM]	TGI [5] [µM]	TGI [6] [µM]	TGI [7] [µM]	TGI [8] [µM]	TGI [9] [µM]	TGI [10] [µM]	GI50 [1] [µM]	GI50 [2] [µM]	GI50 [4] [µM]	GI50 [6] [µM]	GI50 [7] [µM]	GI50 [8] [µM]	GI50 [5] [µM]
S=c1ncc(-c2cncc(-c3cnc(=S)[nH]c3)n2)c[nH]1	> 100	> 100	> 100	> 100	> 100	> 100	> 100	> 100	> 100								
Nc1nc(Cl)c2ncn(CCCC(c3ccccc3)P(=O)(O)O)c2n1 (centres undefined)	> 100		> 100	> 100	> 100	> 100	> 100	> 100	> 100	> 100							
COc1ccc(OC)c2c(C(C)=O)cccc12	> 100			> 100	> 100	> 100	> 100	> 100	> 100	> 100							
c1ccc(C(Oc2noc3ccccc23)c2ccccc2)cc1	> 100	> 100	63.5		> 100	> 100	> 100	49.7	61.3	> 100							
CN(C(=O)Cc1ccccc1)n1cn[n+](CC(=O)OC(C)(C)C)c1	> 10	> 10	> 10	> 10	> 10	> 10	> 10	> 10		> 10							
Cc1c2cc[n+](Cc3ccc(I)cc3)cc2c(C)c2c1[nH]c1ccccc12	5.59			> 15.8	1.93	> 9.98		9.51	1.11	> 21.7							
CC(C)c1cc(=O)[nH]c2cc(N)ccc12		> 100	> 100	> 100	> 100	> 100	> 100	> 100		> 100							
CN(CCN)[C@H](CSSC[C@@H](c1ccccc1O)N(C)CCN)c1ccccc1O	33	34	33.5	31.9	24.4	20.4	22.6	10.5		28.6							
Cc1ccc(S(=O)(=O)OC[C@@]2(C)CC[C@]3(C)CC[C@]4(C)C(=C3C2)C=C[C@@H]2[C@@]3(C)CCCNC(C)(C)[C@@H]3CC[C@]24C)cc1	3.36	3.16		3.11		3.29	3.1	6.06			1.7	1.66	1.71	1.78	1.72	2.14	
CCOC(=O)c1ccc(N(CCOS(C)(=O)=O)CCOS(C)(=O)=O)cc1	41.1	> 100	> 100	62.1	> 100	> 100	63.7	77.6	> 100								
O=C1c2cc3c(cc2NC(c2ccccc2F)C1O)OCO3 (centres undefined)	34.4	> 84.9	> 100	35.2	> 100	43.6	> 100	97.7		> 66.1							
CC1CC(=O)N(N(C)C)C2(C#N)C(=O)N=C(N)C12C#N (centres undefined)	> 100	> 100	> 100	> 100		> 100	> 100	67.5	51.7	> 100							
Cc1ccc(S(=O)(=O)N/N=C2\C=CC3(CC2)C(=O)N(I)c2ccccc23)cc1 (centres undefined)		> 100	> 100	> 100	> 100	> 100	> 100	> 100		> 100							
COc1ccc(-c2nc3ccccc3c(=O)[nH]2)cc1	> 100	95.1	> 100	> 100		> 100		> 100	> 100	> 100							
O=C(O)CN1C(=O)c2ccc(NC(=O)C(=O)O)cc2S1(=O)=O	> 100	> 100	> 100		> 100	> 100	> 100	> 100	> 100	> 100							
CNC(=S)N/N=C/C(C)=N/NC(=S)NC	> 100		> 100	> 100	> 100	> 100	> 100			> 100							
COc1cc2c(c(OC)c1OC)C(=O)c1c(O)cc(C)c(OC)c1C2=O	> 100	> 100	> 100	> 100	> 100	> 100	> 100		> 100	> 100							
CC1=NN(c2nc(N)nc(CO)n2)C(C)(C)C1	> 100	> 100	> 100	> 100		> 100	> 100	> 100	> 100	> 100							
CCCCCCCCCCCC1N=C(N)N=C(N)N1c1cccc(Br)c1 (centres undefined)	2.95				1.65	19.4	7.05				1.51			1.16	2.52		0.0779
CNC(=O)OCc1cnc([N+](=O)[O-])n1C	> 100	> 100		> 100	> 100	> 100	> 100	> 100	> 100	> 100							
CO[C@@]12C[C@H](CNC(=O)c3ccc[nH]3)O[C@@H]1NC(=O)N2	> 100	> 100	> 100	> 100	> 100	> 100	> 100		> 100	> 100							
COC(=O)[C@@H]1c2c(oc3cc(CO)cc(O)c3c2=O)C=C[C@H]1O	3.64	12	19.8	9.41	34	35.7		25		40							
Nc1nc(Cl)c(CO)c(NCC2(CO)CCC2)n1	> 100	> 100		> 100	> 100	> 100	> 100	> 100	> 100	> 100							
O=C(/C=C/c1ccc(-c2ccccc2)cc1)NCc1ccc(C(=O)NCCc2ccccc2)cc1	> 100	> 100	> 100	38.1	> 100	> 100	> 100	39.1		> 100							

— PubChem BioAssay (NCI)
